# pIC50: −log10 of the molar value.
# How the values were obtained:
# [1] = tested on: CDK8/CDK19/CCNC protein degradation and STAT1 S727 phosphorylation; assay: Wash-off study in HEK-293 cells, Western blot; type: cell-based, human; settings: HEK-293, within 24 hours after removal of drug-containing media
# [2] = Serum drug concentrations in CD-1 mice (LCMSMS); type: in vivo; settings: female CD-1 mice, i.p. 15 mg/kg, 15 min and 1 hr
# Experimental: For preliminary evaluation of the bioavailability of the PROTACs, IA7882 and IA7886 were administered to female CD-1 mice via intraperitoneal (i.p.) injection at the dose of 15 mg/kg. Drug concentrations were measured by LCMSMS analysis of serum samples collected at 15 min and 1 hr time point.
# CDK8 [3] = target: T1, CDK8 (Homo sapiens, UniProt P49336); assay: CDK8 degradation in RPMI 8226 cells (Western blot); type: cell-based; set-up: host or cells: RPMI 8226; settings: RPMI 8226, concentrations used in FIG. 14A
# MV4-11 cells = assay: Long-term growth of MV4-11 cells under continuous treatment; type: cell-based, human; settings: MV4-11, 300 nM continuous
# Experimental: The anti-proliferative effects of a PROTAC and a kinase inhibitor were compared in leukemia cell lines. In the long-term treatment experiment shown in FIG. 11A, Jurkat cells (0.1 million cells) were continuously treated with vehicle control (0.1% DMSO), 300 nM BI-1347 or 300 nM IA7886 for 53 days (each condition in biological triplicates). Every 7-8 days, live cells were counted using BioRAD TC20 Automated Cell Counter with trypan blue staining: 0.1 million live cells were passaged to a new T25 flask to propagate under the same treatment conditions. The survival fraction was calculated by dividing the accumulated number of drug-treated cells with the accumulated number of vehicle-treated cells. […] This sustained inhibition property of PROTAC was also observed in MV4-11, a leukemia cell line highly sensitive to CDK8/19 kinase inhibitors.
# SK-MM-2 cells = assay: SK-MM-2 multiple myeloma cell growth over 20 days continuous treatment; type: cell-based; settings: BI1347 200 nM, Senexin C 1 μM, IA7886 200 nM, IA7843 1 μM
# Experimental: The following CDK8/19 kinase inhibitors were tested for their effects on MM cell lines over 20 days continuous treatment: CDK8/19 kinase inhibitors BI1347 (200 nM) and Senexin C (1 μM), BI1347-derived PROTAC IA7886 (200 nM) and Senexin C-derived PROTAC IA7843 (1 μM). 1-4 million cells were treated with vehicle control (0.1% DMSO), or CDK8/19 kinase inhibitors or PROTACs for 20 days. Every 4 days, cells were counted using BioRAD TC20 Automated Cell Counter with trypan blue staining, and the same number of cells were passaged to a new T25 flask to propagate under the same treatment conditions.
# CDK8/19-regulated genes = assay: QPCR of CDK8/19-regulated genes in HEK-293 wild-type and CDK8/19 double-knockout cells; type: cell-based, human; settings: for effect on expression of CDK8/19-regulated genes: 200 nM, 3-day treatment
# Experimental: CDK8/19 act as transcriptional regulators, and therefore we tested the effects of 3-day treatment with 200 nM PROTAC IA7886 along with 200 nM CDK8/19 kinase inhibitor BI-1347 on a series of CDK8/19-regulated genes, using QPCR.
# We have also compared the stability of transcriptional changes induced by a PROTAC and by a kinase inhibitor. In the experiment shown in FIG. 10A, HEK-293 cells were treated with 200 nM of BI-1347 or IA7886 for 3 days, and then the inhibitors were washed off and the restoration of transcriptional changes was monitored 24 hrs and 48 hrs after wash-off.
# CDK8 [4] = target: T1, CDK8; assay: CDK8 degradation in other human cell lines (22Rv1, MV4-11, HAP-1, HTB-185, SAOS2, SJSA-1); type: cell-based; set-up: endogenous in cells; settings: 24-hr treatment
# Source text: FIG. 5 illustrates the effects of the novel PROTACs HP8580, IA7843 and IA7886 on CDK8 and CDK19 degradation in other human cell lines, including 22Rv1 prostate cancer (expressing more CDK19 than CDK8), MV4-11 (AML) and HAP-1 (CML) leukemia cell lines, HTB-185 medulloblastoma, and SAOS2 and SJSA-1 osteosarcoma (the latter expressing only CDK19 but not CDK8).
# CDK19 = CDK19 (Homo sapiens, UniProt Q9BWU1); assay: CDK19 degradation in HEK-293 cells with CRISPR knockout of CCNC; type: cell-based; set-up: a derivative of HEK-293cells with CRISPR-mediated knockout of CCNC; endogenous in cells; host or cells: HEK-293 with CRISPR knockout of CCNC; settings: HEK-293 CCNC-knockout cells, 24 hr treatment
# Source text: This cell line, however, is unique in lacking Cyclin C (CCNC), the binding partner of CDK8/19. To test if the absence of CDK8-bound CCNC was responsible for the loss of IA7843 CDK8-degrading activity, we have tested the effect of IA7843 on a derivative of HEK-293cells with CRISPR-mediated knockout of CCNC.
# RPMI 8226 cells = assay: Concentration dependence of RPMI 8226 growth inhibition; type: cell-based; settings: Homo sapiens, 96 h; RPMI 8226, 4-day growth inhibition
# T1 sequence (P49336 whole entry): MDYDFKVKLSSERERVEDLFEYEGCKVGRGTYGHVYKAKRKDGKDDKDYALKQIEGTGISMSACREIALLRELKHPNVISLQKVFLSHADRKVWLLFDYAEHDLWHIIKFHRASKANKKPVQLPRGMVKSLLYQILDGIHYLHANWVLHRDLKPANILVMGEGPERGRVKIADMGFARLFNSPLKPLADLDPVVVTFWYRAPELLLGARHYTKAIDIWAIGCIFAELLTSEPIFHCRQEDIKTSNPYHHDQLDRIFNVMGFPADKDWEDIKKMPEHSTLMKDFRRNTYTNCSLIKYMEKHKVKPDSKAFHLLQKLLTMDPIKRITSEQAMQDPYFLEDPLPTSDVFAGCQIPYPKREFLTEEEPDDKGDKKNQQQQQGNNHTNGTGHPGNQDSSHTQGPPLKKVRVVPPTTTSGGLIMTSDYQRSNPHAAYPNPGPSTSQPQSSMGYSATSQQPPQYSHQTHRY
# T1 sequence (P24863 whole entry partner): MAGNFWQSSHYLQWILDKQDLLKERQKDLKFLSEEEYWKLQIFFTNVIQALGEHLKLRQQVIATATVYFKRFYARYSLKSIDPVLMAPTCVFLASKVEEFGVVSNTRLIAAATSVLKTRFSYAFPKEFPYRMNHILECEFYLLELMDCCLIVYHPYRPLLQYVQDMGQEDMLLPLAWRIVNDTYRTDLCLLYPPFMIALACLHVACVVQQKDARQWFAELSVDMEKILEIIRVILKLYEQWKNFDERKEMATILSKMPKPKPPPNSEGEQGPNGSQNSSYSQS
# CDK19, sequence (Q9BWU1 whole entry): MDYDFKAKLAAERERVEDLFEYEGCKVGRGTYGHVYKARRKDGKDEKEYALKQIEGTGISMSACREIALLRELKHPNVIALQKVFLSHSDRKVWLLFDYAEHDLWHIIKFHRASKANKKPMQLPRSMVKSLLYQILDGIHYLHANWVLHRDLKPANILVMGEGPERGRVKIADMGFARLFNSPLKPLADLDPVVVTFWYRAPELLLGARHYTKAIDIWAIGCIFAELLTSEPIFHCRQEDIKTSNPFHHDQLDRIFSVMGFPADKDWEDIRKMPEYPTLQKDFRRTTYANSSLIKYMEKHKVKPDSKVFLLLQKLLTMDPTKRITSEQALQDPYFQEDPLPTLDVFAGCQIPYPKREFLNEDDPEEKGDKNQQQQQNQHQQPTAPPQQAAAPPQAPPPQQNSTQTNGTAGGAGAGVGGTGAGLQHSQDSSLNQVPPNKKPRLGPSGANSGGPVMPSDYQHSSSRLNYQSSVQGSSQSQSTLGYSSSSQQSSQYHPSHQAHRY
structure (smiles),measurement,setting,value
"O=C(CCCNc1cccc2c1C(=O)N(C1CCC(=O)NC1=O)C2=O)NCCCCCCCCCCC(=O)N1CCN(C(=O)Cn2cc(-c3ccc(-c4cncc5ccccc45)cc3)cn2)CC1 (centres unmarked) [IA7886, 4-[[2-(2,6-dioxo-3-piperidyl)-1,3-dioxo-isoindolin-4-yl]amino]-N-[11-[4-[2-[4-[4-(4-isoquinolyl)phenyl]pyrazol-1-yl]acetyl]piperazin-1-yl]-11-oxo-undecyl]butanamide]",effects on CDK8/CDK19/CCNC protein degradation and STAT1 S727 phosphorylation after removal of drug,[1],remained nearly unchanged
same,serum drug concentrations,[2],readily measurable and were higher for IA7882 than for IA7886
same,CDK8 degradation (in words),CDK8 [3],efficiently degraded CDK8 in RPMI 8226 cells
same,growth inhibition over 60 days,MV4-11 cells,much more stable and continued for the entire 60 days
same,"growth inhibition over 20 days, order of efficacy",SK-MM-2 cells,BI1347<IA7886<Senexin C<IA7843
same,effect on expression of CDK8/19-regulated genes,CDK8/19-regulated genes; CDK8/19 double-knockout (dKO) 293 cells,had no effect in dKO cells
same,stability of transcriptional changes after wash-off,"CDK8/19-regulated genes; HEK-293, 200 nM for 3 days, then 24 hrs and 48 hrs after wash-off",maintained even 48 hrs after wash-off
same,effect on expression of CDK8/19-regulated genes,CDK8/19-regulated genes; wild-type HEK-293 cells,had similar effects on the expression of the tested genes
same,CDK8 degradation (in words),CDK8 [4],significantly degraded CDK8 and CDK19 in all the tested cell lines
same,CDK19 degradation (in words),CDK19,efficiently degraded CDK8 and CDK19
same,pIC50,RPMI 8226 cells,7.62

# — US20250127906A1, “SMALL-MOLECULE DEGRADERS OF CDK8 AND CDK19” (University of South Carolina, priority 2021, published 2025)
